From US10258598B2, “Compounds for use in the prevention or treatment of cancer” ([…], priority 2014, dated 2019)

Key:
[1] = tested on: male Wistar rats (Charles River); test: Longevity study: survival of rats under lifelong treatment; format: in vivo, rat; details: for month of age in which the first animal died: saline: 9th month; for lifespan versus saline-treated peers: both doses of each substance (FIGS. 5-8), Kaplan-Meier
Method: Experiments were carried out on male Wistar rats (Charles River) weighing 250-350 g received from the breeding colony of Semmelweis University. The animals were kept in a 12-hour light-dark cycle and under condition of controlled temperature (22±2° C.) and relative humidity (55±5%). Room temperature and relative humidity was checked daily. The rats were maintained on standard laboratory chow and tap water ad libitum. All procedures conformed to the European Convention for the protection of vertebrate animals used for experimental and other scientific purposes. The study was approved by the Animal Ethics Committee of Semmelweis University, Budapest (permission number: 1810/003/2004)
The longevity study was performed on 200 male rats received from the breeding colony of the Semmelweis University. The rats were born at the end of February of 2010. After 2-month acclimation period the rats were divided randomly into 5 even groups. The longevity study started at the beginning of May 2010. Animals were observed until their natural deaths. The data in this study represent the changes observed until Oct. 31, 2012, since in the saline-treated group the last animal died on Oct. 31, 2012. As will be shown later a few rats in the enhancer-treated groups were still alive on Nov. 1, 2012.
During the longevity study 5 rats were housed together in polycarbonate cages (height: 18 cm; wide: 42 cm; length: 44 cm) with a stainless steel on the top. Cage bedding was renewed 3 times a week (Monday, Wednesday and Friday). Bodyweight was measured once every month. The treatment started at the end of the second month of their age. […] To avoid the mixing of the groups and individuals, saline-treated rats were signed blue from 1 to 40; D-treated rats were signed green from 1 to 80 (1-40: rats treated with 0.1 mg/kg and 41-80: rats treated with 0.001 mg/kg); B-treated rats were signed black from 1 to 80 (1-40: rats treated with 0.05 mg/kg and 41-80: rats treated with 0.0001 mg/kg).
Significance in the performance between the groups in the shuttle box was evaluated by multi-factor analysis of variance (ANOVA). Significance regarding the span of time from tumor manifestation until death in rats and regarding aging related changes in bodyweight treated chronically with the enhancer substances was analyzed by One-way ANOVA. Statistical analysis of survival rate and tumor manifestation was performed by the Kaplan-Meier method.

[2] = tested on: Daoy HTB-186 cell line; test: MTT proliferation assay, Daoy medulloblastoma cells; format: cell-based, human; details: 72 hours; for proliferation of cultured cells, monotherapy: nine concentrations between 10^-14 and 10^-6 M, MTT
Method: (§1) Human medulloblastoma cell line, Daoy was purchased from ATCCC, UW-228 was obtained from the courtesy of Professor Silber (University of Washington, Seattle, Wash., USA).
(§2) Daoy and UW-228-2 cell lines were maintained in culture medium (each 500 ml Minimum Essential Medium Eagle, Alpha Modification (M8042, Sigma, St Louis, USA) with 50 ml FCS (Gibco), 40 mg Gentamicin (Sandoz), 5 ml sodium-pyruvate (S8636, Sigma, St Louis, USA), 5 ml non-essential-amino acid solution (M7145, Sigma, St Louis, USA), 10 ml L-glutamin (Sigma, St Louis, USA) at 37° C. in humified 5% CO2.
(§3) In each well 3×10^3 Daoy or UW-228-2 cells were seeded in 96-well plates (Sarstedt), solved in 100 µl of its own medium with 10% FCS. 24 hours after seeding, cells were treated for 72 hours by drugs solved in further 100 μl medium. First, both cell lines were treated by (−)-BPAP and (−)-deprenil in monotherapy to determine its dose-effect curves in concentration of 10^−6, 10^−7, […], 10^−9, 10^−10, 10^−11, 10^−12, 10^−13 and 10^−14 M. In combined treatment 10^−3, 3.3×10^−4, […] and 3.7×10^−5 M of temozolomide (Schering Plough, USA) or 0.04, 0.2, 1, 5 μM of Cisplatin (Ebewe Pharma, Austria) or 0.04, 0.2, 1, 5 μM of etoposide (Ebewe Pharma, Austria) or 10^−7, 10^−6, 10^−5 and 10^−4 μM (UW228-2) or 0.001, 0.005, 0.025 and 0.125 μM (Daoy) of Vincristin (Richter Gedeon, Hungary) were applied in monotherapy or combined with 10^−13 or 10^−8 M of (−)-BPAP or (−)-deprenil.
(§4) Cell proliferation was evaluated by MTT (3-(4,5-Dimethylthiazol-2-yl)-2,5-diphenyltetrazolium bromide) assay (M5655, Sigma) after 72-hour treatment by the method described in manufacturer's protocol.

[3] = tested on: UW-228-2 cell line; test: MTT proliferation assay, UW-228-2 medulloblastoma cells; format: cell-based, human; details: 72 hours; for proliferation of cultured cells, monotherapy: nine concentrations between 10^-14 and 10^-6 M, MTT
Method: as §1, §2, §3, §4

[4] = tested on: lung carcinoma; test: Longevity study on FVB/N mice: spontaneous lung carcinoma at autopsy; format: in vivo; details: for Number of detected lung carcinoma: 18 months, saline 3 of 4
Method: Five groups of mice are treated daily from sexual maturity with two different doses of
(−)-deprenyl and (−)-BPAP, respectively.
Group 2: BPAP low dose: 0.0001 mg/kg (−)-BPAP
Group 3: BPAP high dose: 0.05 mg/kg (−)-BPAP
A total of 172 mice entered the experiments. Body weight is measured bimonthly.
For monitoring, we planned to sacrifice mice from each group at 6-month, 1-year, 1.5-year and 2-year time-points; the rest of the animals are kept until spontaneous death.
The results are shown in Table 4 and on FIGS. 19 and 20. Significance levels were calculated with two-sided Chi-square test.

[5] = tested on: tetrabenazine-induced learning deficit; test: Shuttle box: conditioned avoidance reflex, antagonism of tetrabenazine-induced learning deficit; format: in vivo, rat; details: for very high dose range effective in antagonizing the tetrabenazine-induced learning deficit: attributed to inhibition of MAO-A; for optimal dose that exerted the specific enhancer effect: rats given 1 mg/kg tetrabenazine s.c. one hour prior to training
Method: In a modified version of the shuttle box the acquisition of a two-way conditioned avoidance reflex (CAR) was analyzed during 5 consecutive days. The rat was put in a box divided inside into two parts by a barrier with a small gate in the middle, and the animal was trained to cross the barrier under the influence of a conditioned stimulus (CS, light flash). […] One trial consisted of 10 s intertrial interval, followed by 20 s CS. The last 5 s of CS overlaped the 5 s US. At each learning session, the number of CARs, EFs and intersignal reactions (IRs) are automatically counted and evaluated by multi-way ANOVA.
Tetrabenazine-treatment (1 mg/kg s.c.) depletes at least 90% of norepinephrine and dopamine from their stores in the nerve terminals of the catecholaminergic neurons in the brain stem. Due to the weak performance of the catecholaminergic brain engine, the activation of the cortical neurons remains below the level required for the acquisition of a CAR. The learning deficit caused by tetrabenazine-treatment can be antagonized by the administration of a synthetic CAE substance or an A-type MAO inhibitor, whereas selective inhibition of B-type MAO or inhibition of the reuptake of catecholamines and/or serotonin is ineffective (Knoll et al., 1992).

[6] = 10^-13 or 10^-8 M combined with temozolomide, Cisplatin, etoposide or Vincristin

CCCN[C@H](CCC)Cc1cc2ccccc2o1 [(−)-BPAP, (R)-1-(benzofuran-2-yl)-2-propylamino pentane]
month of age in which the first animal died ([1]; 0.0001 mg/kg s.c. 3 times a week, N=40): 16 month
rats remaining alive to the end of the 32nd month of age ([1]; 0.0001 mg/kg, N=40, P<0.05 vs saline): one and One
month of age in which the first animal died ([1]; 0.05 mg/kg s.c. 3 times a week, N=40): 14 month
lifespan versus saline-treated peers [1]: significantly longer
effectiveness of tumor-cell proliferation inhibiting agents in combination [2, 6]: did not change the effectiveness
proliferation of cultured cells, monotherapy [2]: did not inhibit the proliferation
proliferation of cultured cells, monotherapy ([2]; listed as BPAP): In none of the applied concentrations
effectiveness of tumor-cell proliferation inhibiting agents in combination [3, 6]: did not change the effectiveness
proliferation of cultured cells, monotherapy [3]: did not inhibit the proliferation
proliferation of cultured cells, monotherapy ([3]; listed as BPAP): In none of the applied concentrations
Number of detected lung carcinoma ([4]; 0.0001 mg/kg daily, 4 dissected mice): 0
Number of detected lung carcinoma ([4]; 0.05 mg/kg daily, 4 dissected mice): 1
manifestation of lung carcinoma ([4]; specific enhancer (extremely low) dose, 18 months daily treatment): completely prevented
very high dose range effective in antagonizing the tetrabenazine-induced learning deficit [5]: 2000 to 10000 µg/kg
optimal dose that exerted the specific enhancer effect [5]: 0.1 µg/kg
dose with the non-specific enhancer effect selected for the longevity study ([5]; rats given 1 mg/kg tetrabenazine s.c., for Deprenyl the less effective dose was chosen): 50 µg/kg

C#CCN(C)[C@H](C)Cc1ccccc1 [(−)-Deprenyl, (R)—N-methyl-N-(1-phenylpropan-2-yl)prop-2-yn-1-amine]
month of age in which the first animal died ([1]; 0.001 mg/kg s.c. 3 times a week, N=40): 13 month
month of age in which the last animal died ([1]; 0.001 mg/kg, N=40): 32 month
rats remaining alive to the end of the 32nd month of age ([1]; 0.001 mg/kg, N=40, P>0.05 vs saline): none
month of age in which the first animal died ([1]; 0.1 mg/kg s.c. 3 times a week from 2 months of age, N=40): 11 month
lifespan versus saline-treated peers [1]: did not prolong the lifespan of rats significantly
proliferation of cultured cells, monotherapy ([2]; listed as (−)-deprenyl): did not inhibit the proliferation
proliferation of cultured cells, monotherapy ([2]; listed as Deprenyl): In none of the applied concentrations
proliferation of cultured cells, monotherapy ([3]; listed as (−)-deprenyl): did not inhibit the proliferation
proliferation of cultured cells, monotherapy ([3]; listed as Deprenyl): In none of the applied concentrations
Number of detected lung carcinoma ([4]; 0.001 mg/kg daily, 2 dissected mice): 0
Number of detected lung carcinoma ([4]; 0.1 mg/kg daily, 4 dissected mice): 1
form of the dose-effect relation of the enhancer effect ([5]; FIG. 3): bi-modal, bell-shaped dose-effect-relation
very high dose range effective in antagonizing the tetrabenazine-induced learning deficit [5]: 5000 to 10000 µg/kg
optimal dose that exerted the specific enhancer effect [5]: 1 µg/kg
